Key:
β-catenin = β-catenin induction in brains of MCAO rats (Western blot); assay type: in vivo, rat; settings: all doses, at the termination of the study
Procedure: Hypotonic Lysis Buffer consists of 10 mM HEPES, 10 mM KCL, 1.5 mM MgCl2, 1.0 mM EDTA, 1.0 mM DTT, 1× Roche protease inhibitor cocktail, and 1.0 mM AEBSF Calbiochem protease inhibitor cocktail (cat#539134). All concentrations are final and are diluted in water. First, hypotonic lysis buffer is added to the tissue at 5×'s weight. The tissue is then broken up on ice using the end of a syringe plunger. Next, the samples are freeze-thawed five times. The lysates are then transferred to ultracentrifuge tubes and spun at 100,000 g for 35 min at 4° C. The supernatants are then collected and an aliquot is taken to measure protein with the Pierce BCA protein assay kit (cat#23225), using BSA standard curve. The remaining protein lysates are diluted 1:1 with laemmli sample buffer containing β-mercaptoethanol. The protein concentration is then normalized. The samples are boiled for 5 min at 95° C. followed by a spin at 14,000 rpm in a mini-centrifuge for 1 min. The samples are then snap frozen with dry ice and stored at −20° C. The samples are first loaded on 10% Tris-glycine gel (10 uL/well). […] Induction of β-catenin is determined by comparison of the density of protein band in samples obtained from compound treated animals with that of vehicle treated animals. […] Lysates were analyzed by Western blot (see Example 3) and probed for GSK-3α/β pTYR levels. […]

CRMP2 = CRMP2 phosphorylation assay; assay type: cell-based, rat; settings: E16 hippocampal neurons treated for 7 days
Procedure: GSK-3 phosphorylation regulates CRMP2 which is involved in the control of axon outgrowth and branching (Yoshimura et al. 2005 Cell, Kim et al. 2006 Neuron). Phosphorylation of CRMP2 by GSK-3 reduces CRMP2 binding to microtubules and thereby reduces axon elongation and branching. Conversely, inhibition of GSK-3, especially at levels that selectively affect TYR residue autophosphorylation, enhances these phenotypes. Compounds are tested in E16 rat hippocampal or cortical neurons to determine the ability to increase the level of axonal branching. 1 mg/ml stock of PDL is diluted into 100 μg/ml in DI water. The glass coverslips are coated for at least 1 hour at 37° C. prior to doing the dissection. PDL is aspirated and the plates are rinsed with PBS and air-dried in hood. Cortical or hippocampal lobes are combined with 9 mL of Base media (Neurobasal+Pen/Strep) and put on ice. 1 mL of 10× trypsin solution is added and the mixture is swirled gently. The tissue is then digested via incubation in a 37° C. waterbath for 20 minutes. After 20 minutes, 10 μl/ml DNase (100 μL DNase) is added and the mixture is incubated for another 5 minutes. The cells are spun at 1000 rpm for 1 minute. The enzyme solution is then removed without removing any of the brain fragments sitting on the bottom. […] The cells are counted in a hemacytometer and seeded at 50,000 cells/well in a 12 well plate. […]

Cc1nc(-c2ccccc2Cl)nc(Nc2n[nH]c3ncc(F)cc23)c1C [Compound I-1, N-(2-(2-chlorophenyl)-5,6-dimethylpyrimidin-4-yl)-5-fluoro-1H-pyrazolo[3,4-b]pyridin-3-amine]
induction of β-catenin in the brain (β-catenin): no induction of β-catenin | Inhibition of GSK-3 phosphorylation of substrate CRMP-2 (CRMP2): correlated with inhibition of GSK-3 pTYR
